This assay deals with 3-isopropylmalate dehydrogenase (Thermus thermophilus, UniProt Q5SIY4). Put plainly: Inhibition of Thermus thermophilus HB8 IPMDH assessed as formation of NADH by Lineweaver-Burke plot analysis.

Results on 1 compound are retold here after ChEMBL document CHEMBL1152673, “Crystal structure of 3-isopropylmalate dehydrogenase in complex with NAD(+) and a designed inhibitor” (Bioorg Med Chem, 2009).

Sequence of 3-isopropylmalate dehydrogenase (Q5SIY4 whole entry): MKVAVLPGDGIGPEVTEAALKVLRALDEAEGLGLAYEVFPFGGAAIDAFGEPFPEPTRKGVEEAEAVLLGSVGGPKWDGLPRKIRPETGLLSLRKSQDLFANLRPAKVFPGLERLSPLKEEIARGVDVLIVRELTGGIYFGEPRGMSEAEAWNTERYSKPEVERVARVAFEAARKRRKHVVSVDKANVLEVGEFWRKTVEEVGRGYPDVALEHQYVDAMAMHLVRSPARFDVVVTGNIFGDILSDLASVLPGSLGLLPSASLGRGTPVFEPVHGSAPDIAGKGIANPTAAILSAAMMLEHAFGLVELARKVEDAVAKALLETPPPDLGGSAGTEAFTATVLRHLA

Usually Ki stands for the dissociation constant of the complex between target and ligand, obtained from inhibition or displacement. For `CS[C@H](C(=O)O)[C@@H](O)C(=O)O`, the Ki is 0.062 µM.
